{"source": "patent US20220233512A1", "about": "“INHIBITING AN IMMUNE RESPONSE MEDIATED BY ONE OR MORE OF TLR2, RAGE, CCR5, CXCR4 AND CD4” (priority 2020, published 2022)", "system": "tau", "assay": "Tau phosphorylation in Ab42-treated organotypic frontocortical slice cultures", "type": "cell-based", "details": "Ab42-treated rat organotypic frontocortical slice cultures", "procedure": "Rat brain slice organotypic culture methods were modified from those published previously. [Adamchik et al., Brain Res Brain Res Protoc 5:153-158 (2000).] FCX slices ([…]) were transferred to sterile, porous Millicell-CM inserts (0.4 mm). Each culture insert unit contained two brain slices and was placed into individual wells of a 12-well culture tray in 2 ml medium: 50% MEM with Earl's salts, 2 mM L-glutamine, 25% Earl's balanced salt solution, 6.5 g/l D-glucose, 20% fetal bovine serum (FBS), 5% horse serum, 25 mM HEPES buffer, pH 7.2, and […] streptomycin and […] penicillin. Cultures were kept in an incubator for 2 days at 36° C. in 5% CO2 to minimize the impact of injury from slice preparation.\nOn the day of experiment, medium was removed, the brain slices rinsed and incubated in 0.1% FBS-containing medium for 4 hours at 36° C. in 5% CO2. Brain slices were then cultured with 100 nM Ab42 and/or 0.1, 1 nM compound C0105 or compound C0114 in fresh 0.1% FBS-containing medium for 16 hours. […]\nThe levels of phosphorylated tau (pSer202tau, pThr231tau and pThr181tau) as well as total tau precipitated (loading controls) are assessed by Western blotting using specific antibodies directed against each of the phosphor-epitopes and the anti-tau, respectively."}
{"smiles": "CN1CCC2(CC1)NCC(=O)N2Cc1ccccc1", "note": "[Compound C0105M]", "values": [{"measurement": "Phosphorylation of tau at all three phosphorylation sites", "value": "dramatically reduces phosphorylation of tau"}]}
